Measured values: patent US20090269416A1, “Compositions and Methods For Preventing or Treating Chronic Renal Failure in Felines With Hyperthyroidism” (HILL'S PET NUTRITION , INC., priority 2006, published 2009)

Tested on: cats diagnosed with hyperthyroidism
Assay: Six-week feeding/treatment study in hyperthyroid cats (Example 1): thyroid hormone profiles and serum chemistries
Format: in vivo
Conditions: six weeks
Method: Food B1 and food B2 were mixed in a 1:1 ratio, thus resulting in food B. A group of five cats diagnosed with hyperthyroidism was fed food B for six weeks. Another live cats diagnosed with hyperthyroidism were given 2.5 mg methimazole orally once a day for six weeks while they were fed food B. Eight eats diagnosed with hyperthyroidism were given 2.5 mg methimazole orally once a day for six weeks while they were fed a commercially available cat food. The thyroid hormone profiles and serum chemistries of all cats were measured at zero, two, four, and six weeks.

[1] = hyperthyroid cats, methimazole 2.5 mg orally once a day, food B fed

## Cn1cc[nH]c1=S [Methimazole, methimazole]
[1]
  Change in Serum Creatinine Levels: +0.46 mg/dL
  Change in Serum Total T4 Levels: -20.3 nmol/L
Normal range 0.8-1.8 mg/dL
  serum creatinine concentration relative to the normal creatinine concentration range: a bit higher than die 0.8-1.8 mg/dL normal creatinine concentration range
Normal range printed as 10-55 nmol/dL
  serum total T4 concentration relative to the normal total T4 concentration range: did not reach the normal total T4 concentration range
